Patent US10570129B2 (Zoetis Services LLC, priority 2015, dated 2020)

What was measured:
[1] = system: Trichostrongylus colubriformis; experiment: Jird efficacy model; format: in vivo; details: Trichostrongylus colubriformis, sc, 96 h, read-out: Jird % (percentage efficacy)
[2] = system: D. immitis microfilariae; experiment: Dirofilaria immitis, microfilariae (DiMF) in vitro motility assay; format: cell-based; details: Dirofilaria immitis, 72 h, read-out: DiMF minimally effective dose (MEC)
[3] = system: Haemonchus contortus L3; experiment: microbe, parasite or virus in culture; format: cell-based; details: Haemonchus contortus, 96 h, read-out: HcL3 Minimal Effective Concentration (MEC)

Row | Structure (SMILES) | inhibition in vivo at 10 mg/kg [1] | minimal effective concentration [2] | minimal effective concentration [3]
1 | O=C(NCc1ccnc(F)c1)n1c2c(c3cc(F)c(Cl)cc31)CN(C/C=C/c1ccc(F)c(F)c1)CC2 [Example 314, (E)-7-chloro-2-(3-(3,4-difluorophenyl)allyl)-8-fluoro-N-((2-fluoropyridin-4-yl)methyl)-1,2,3,4-tetrahydro-5H-pyrido[4,3-b]indole-5-carboxamide] | 100% | 3.3 µM | 1 µM
2 | O=C(NCc1ccnc(F)c1)n1c2c(c3c(Cl)cccc31)CN(C/C=C/c1ccc(Cl)cc1)CC2 [Example 230, (E)-9-chloro-2-(3-(4-chlorophenyl)allyl)-N-((2-fluoropyridin-4-yl)methyl)-1,2,3,4-tetrahydro-5H-pyrido[4,3-b]indole-5-carboxamide] | 100% | 10 µM | 1.8 µM
3 | N#Cc1ccc(/C=C/CN2CCc3c(c4c(F)cc(C(F)(F)F)cc4n3C(=O)NCc3ccnc(Cl)c3)C2)cc1 [Example 321, (E)-N-((2-chloropyridin-4-yl)methyl)-2-(3-(4-cyanophenyl)allyl)-9-fluoro-7-(trifluoromethyl)-1,2,3,4-tetrahydro-5H-pyrido[4,3-b]indole-5-carboxamide] | 100% | 5.7 µM | 2.4 µM
4 | O=C(NCc1ccnc(Cl)c1)n1c2c(c3cc(Cl)ccc31)CN(C/C=C/c1ccc(F)c(F)c1)CC2 [Example 240, (E)-8-chloro-N-((2-chloropyridin-4-yl)methyl)-2-(3-(3,4-difluorophenyl)allyl)-1,2,3,4-tetrahydro-5H-pyrido[4,3-b]indole-5-carboxamide] | 98% | 3.3 µM | 0.2 µM
5 | N#Cc1ccc2c3c(n(C(=O)NCc4ccnc(Cl)c4)c2c1)CCN(C/C=C/c1cc(F)c(F)c(F)c1)C3 [Example 29, (E)-N-((2-chloropyridin-4-yl)methyl)-7-cyano-2-(3-(3,4,5-trifluorophenyl)allyl)-1,2,3,4-tetrahydro-5H-pyrido[4,3-b]indole-5-carboxamide] | 99% | 1.8 µM | 0.7 µM
6 | O=C(NCc1ccnc(Cl)c1)n1c2c(c3ccc(OC(F)(F)F)cc31)CN(C/C=C/c1ccc(F)cc1)CC2 [Example 356, (E)-N-((2-chloropyridin-4-yl)methyl)-2-(3-(4-fluorophenyl)allyl)-7-(trifluoromethoxy)-1,2,3,4-tetrahydro-5H-pyrido[4,3-b]indole-5-carboxamide] | 100% | 3.8 µM | 0.6 µM
7 | O=C(NCc1ccnc(F)c1)n1c2c(c3ccc(C(F)(F)F)cc31)CN(C/C=C/c1ccc(Cl)c(F)c1)CC2 [Example 163, (E)-2-(3-(4-chloro-3-fluorophenyl)allyl)-N-((2-fluoropyridin-4-yl)methyl)-7-(trifluoromethyl)-1,2,3,4-tetrahydro-5H-pyrido[4,3-b]indole-5-carboxamide] | 100% | 5.7 µM | 1.8 µM
8 | O=C(NCc1ccnc(F)c1)n1c2c(c3ccc(Cl)cc31)CN(C/C=C/c1ccc(Cl)cc1)CC2 [Example 229, (E)-7-chloro-2-(3-(4-chlorophenyl)allyl)-N-((2-fluoropyridin-4-yl)methyl)-1,2,3,4-tetrahydro-5H-pyrido[4,3-b]indole-5-carboxamide] | 100% | 10 µM | 3.3 µM
9 | N#Cc1ccc(/C=C/CN2CCc3c(c4cc(C(F)(F)F)ccc4n3C(=O)NCc3ccnc(F)c3)C2)cc1 [Example 420, (E)-2-(3-(4-cyanophenyl)allyl)-N-((2-fluoropyridin-4-yl)methyl)-8-(trifluoromethyl)-1,2,3,4-tetrahydro-5H-pyrido[4,3-b]indole-5-carboxamide] | 100% | 14.1 µM | 2.8 µM
10 | N#Cc1ccc(/C=C/CN2CCc3c(c4cc(Br)ccc4n3C(=O)NCc3ccnc(Cl)c3)C2)cc1 [Example 184, (E)-8-bromo-N-((2-chloropyridin-4-yl)methyl)-2-(3-(4-cyanophenyl)allyl)-1,2,3,4-tetrahydro-5H-pyrido[4,3-b]indole-5-carboxamide] | 100% | 57.4 µM | 1 µM
